# Measurements from patent US11999759B2, “Boronic acid derivatives and therapeutic uses thereof” (Qpex Biopharma, Inc., priority 2016, dated 2024).
# Legend:
# KP1005 (CTX-M-14) [1] = experiment: Aztreonam potentiation (MPC@4), strain KP1005; conditions: read-out: Aztreonam MIC
# KP1010 (SHV-12) [2] = experiment: Aztreonam potentiation (MPC@4), strain KP1010; conditions: read-out: Aztreonam MIC
# ec308 (SHV-5) [3] = experiment: Aztreonam potentiation (MPC@4), strain ec308; conditions: read-out: Aztreonam MIC
# EC1010 (CMY-6) [4] = experiment: Aztreonam potentiation (MPC@4), strain EC1010; conditions: read-out: Aztreonam MIC
# ec302 (TEM-10) [5] = experiment: Aztreonam potentiation (MPC@4), strain ec302; conditions: read-out: Aztreonam MIC
# KP1009 (CTX-M-15) [6] = experiment: Aztreonam potentiation (MPC@4), strain KP1009; conditions: read-out: Aztreonam MIC
# ECL1002 [7] = experiment: Aztreonam potentiation (MPC@4), strain ECL1002; conditions: read-out: Aztreonam MIC
# KP1004 (KPC-2) [8] = experiment: Aztreonam potentiation (MPC@4), strain KP1004; conditions: read-out: Aztreonam MIC
# AB1054 (OXA-23) = experiment: Meropenem potentiation (MPC@8), strain AB1054; assay type: cell-based; conditions: Acinetobacter baumannii, read-out: Meropenem MIC
# AB1053 (OXA-72) = experiment: Meropenem potentiation (MPC@8), strain AB1053; assay type: cell-based; conditions: Acinetobacter baumannii; strain AB1053 (OXA-72), meropenem alone
# KP1054 (VIM-1) = experiment: Biapenem potentiation (MPC@1), strain KP1054; assay type: cell-based; conditions: strain KP1054 (VIM-1), biapenem alone
# KP1004 (KPC-2) [9] = experiment: Biapenem potentiation (MPC@1), strain KP1004; assay type: cell-based; conditions: strain KP1004 (KPC-2), biapenem alone
# Description: (§1) Biapenem was present in the test medium at 1 Dg/mL. […] Table 4 summarizes the BLI potency of biapenem potentiation (MPC@1) for two strains overexpressing class A (KPC) and class D (OXA-48) carbapenemases. Biapenem MIC for each strain is also shown.
# [10] = test system: PAM1154/KPC-2 (lacked MexAB-OprM); experiment: Biapenem potentiation (MPC64) in PAM1154/KPC-2; assay type: cell-based, Pseudomonas aeruginosa; set-up: PAM1154/KPC-2 Biapenem MPC64: unit not given here; conditions: for PAM1154/KPC-2 Biapenem MPC64: BLI potency to decrease biapenem MIC 64-fold, from 32 to 0.5 μg/ml, efflux deficient strain
# Method: (§2) Efflux of BLIs from Pseudomonas aeruginosa by the MexAB-OprM efflux pump was also evaluated. The plasmid expressing the gene encoding KPC-2 was introduced into two strains of P. aeruginosa, PAM1032 and PAM1154 that overexpressed or lacked MexAB-OprM, respectively. Due to expression of KPC-2 both strains became resistant to biapenem. […] Potency of BLIs to potentiate biapenem in these strains was determined. […] The ratio of MPC64 values for each BLI in PAM1032/KPC-2 (efflux proficient) and PAM1154/KPC-2 (efflux deficient) was determined to generate the Efflux Index (EI) as shown in Table 8.
# KP1081 (NDM-1) = experiment: Biapenem potentiation (MPC@1), strain KP1081; assay type: cell-based; conditions: strain KP1081 (NDM-1), biapenem alone
# [11] = test system: PAM1032/KPC-2 (overexpressed MexAB-OprM); experiment: Biapenem potentiation (MPC64) in PAM1032/KPC-2; assay type: cell-based, Pseudomonas aeruginosa; set-up: PAM1032/KPC-2 Biapenem MPC64: unit not given here; conditions: for PAM1032/KPC-2 Biapenem MPC64: BLI potency to decrease biapenem MIC 64-fold, from 32 to 0.5 μg/ml, efflux proficient strain
# Method: as §2
# KP1086 (OXA-48) = experiment: Biapenem potentiation (MPC@1), strain KP1086; assay type: cell-based; conditions: strain KP1086 (OXA-48), biapenem alone
# Description: as §1
# IMP-1 = IMP-1 (Serratia marcescens, UniProt P52699); experiment: Inhibition of imipenem cleavage by purified IMP-1; assay type: biochemical; conditions: imipenem reporter substrate; 37° C.; read-out: Ki (IMP-1, IMI)
# Method in brief: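 Purified enzymes preincubated with varying inhibitor concentrations for 10 min at room temperature, then imipenem added as reporter substrate. Hydrolysis followed spectrophotometrically at 294 nm every 30 s for 30 min at 37° C; Ki values derived.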
# CTX-M-14 = CTX-M-14 (Escherichia coli, UniProt Q9L5C7); experiment: Inhibition of nitrocefin cleavage by purified CTX-M-14; assay type: biochemical; conditions: nitrocefin reporter substrate; 10 min preincubation at room temperature; read-out: Ki (CTX-M-14, NCF)
# Method: (§3) Ki values of inhibition of purified class A, C and D enzymes were determined spectrophotometrically using nitrocefin as reporter substrate. Purified enzymes were mixed with various concentrations of inhibitors in reaction buffer and incubated for 10 min at room temperature. Nitrocefin was added and substrate cleavage profiles were recorded at 490 nm every 10 sec for 10 min.
# VIM-1 = VIM-1 (Pseudomonas aeruginosa, UniProt A0A0F7KYQ8); experiment: Inhibition of nitrocefin cleavage by purified VIM-1; assay type: biochemical; conditions: nitrocefin reporter substrate; 10 min preincubation at room temperature; read-out: Ki (VIM-1, NCF)
# OXA-23 = OXA-23 (Acinetobacter baumannii, UniProt Q9L4P2); experiment: Inhibition of nitrocefin cleavage by purified OXA-23; assay type: biochemical; conditions: nitrocefin reporter substrate; 10 min preincubation at room temperature; read-out: Ki (OXA-23, NCF)
# Method in brief: (§4)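 Steps: mix purified enzyme with inhibitor dilutions in reaction buffer; incubate 10 min, room temperature; add nitrocefin; read 490 nm every 10 sec for 10 min; derive Ki.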
# P99 = P99 (Enterobacter cloacae, UniProt P05364); experiment: biochemical; conditions: nitrocefin reporter substrate; 10 min preincubation at room temperature; read-out: Ki (P99, NCF)
# Method: as §3
# Pa-AmpC = Pa-AmpC (Pseudomonas aeruginosa, UniProt P24735); experiment: biochemical; conditions: nitrocefin reporter substrate; 10 min preincubation at room temperature; read-out: Ki (Pa-AmpC, NCF)
# Method: as §3
# OXA-48 = OXA-48 (Klebsiella pneumoniae, UniProt Q6XEC0); experiment: Inhibition of nitrocefin cleavage by purified OXA-48; assay type: biochemical; conditions: nitrocefin reporter substrate; 10 min preincubation at room temperature; read-out: Ki (OXA-48, NCF)
# Method in brief: as §4
# SHV-12 = SHV-12 (Klebsiella pneumoniae, UniProt P0AD64, E235K/G234S/L31Q); experiment: Inhibition of nitrocefin cleavage by purified SHV-12; assay type: biochemical; conditions: nitrocefin reporter substrate; 10 min preincubation at room temperature; read-out: Ki (SHV-12, NCF)
# Method: as §3
# KPC-2 = KPC-2 (Klebsiella pneumoniae, UniProt Q9F663); experiment: Inhibition of nitrocefin cleavage by purified KPC-2; assay type: biochemical; conditions: nitrocefin reporter substrate; 10 min preincubation at room temperature; read-out: Ki (KPC-2, NCF)
# Method in brief: as §4
# KP1005 (CTX-M-14) [12] = experiment: Tigemonam potentiation (MPC@4), strain KP1005; conditions: strain KP1005 (CTX-M-14), tigemonam alone
# ec302 (TEM-10) [13] = experiment: Tigemonam potentiation (MPC@4), strain ec302; assay type: cell-based; conditions: strain ec302 (TEM-10), tigemonam alone
# KP1010 (SHV-12) [14] = experiment: Tigemonam potentiation (MPC@4), strain KP1010; conditions: strain KP1010 (SHV-12), tigemonam alone
# EC1010 (CMY-6) [15] = experiment: Tigemonam potentiation (MPC@4), strain EC1010; assay type: cell-based; conditions: strain EC1010 (CMY-6), tigemonam alone
# ECL1002 [16] = experiment: Tigemonam potentiation (MPC@4), strain ECL1002; assay type: cell-based; conditions: strain ECL1002, tigemonam alone
# KP1009 (CTX-M-15) [17] = experiment: Tigemonam potentiation (MPC@4), strain KP1009; conditions: strain KP1009 (CTX-M-15), tigemonam alone
# ec308 (SHV-5) [18] = experiment: Tigemonam potentiation (MPC@4), strain ec308; assay type: cell-based; conditions: strain ec308 (SHV-5), tigemonam alone
# OXA-23, sequence (Q9L4P2 18-273): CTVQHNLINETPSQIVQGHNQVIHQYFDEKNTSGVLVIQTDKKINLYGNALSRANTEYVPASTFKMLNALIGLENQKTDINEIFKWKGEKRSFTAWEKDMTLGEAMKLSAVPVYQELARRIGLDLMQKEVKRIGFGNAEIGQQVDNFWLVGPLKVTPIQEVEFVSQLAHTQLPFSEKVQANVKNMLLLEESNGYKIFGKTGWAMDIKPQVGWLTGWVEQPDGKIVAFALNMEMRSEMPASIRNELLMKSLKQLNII
# Pa-AmpC, sequence (P24735 27-397): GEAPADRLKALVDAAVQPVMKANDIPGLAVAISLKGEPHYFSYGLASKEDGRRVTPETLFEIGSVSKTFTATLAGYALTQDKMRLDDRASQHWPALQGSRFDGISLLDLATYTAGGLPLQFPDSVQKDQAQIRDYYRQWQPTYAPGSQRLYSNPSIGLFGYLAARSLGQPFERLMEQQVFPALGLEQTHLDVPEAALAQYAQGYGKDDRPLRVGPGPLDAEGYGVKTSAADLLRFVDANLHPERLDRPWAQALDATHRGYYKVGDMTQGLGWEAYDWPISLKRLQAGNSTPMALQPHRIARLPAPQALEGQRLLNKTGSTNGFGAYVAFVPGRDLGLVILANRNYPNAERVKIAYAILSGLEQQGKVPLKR
# OXA-48, sequence (Q6XEC0 23-265, looked up): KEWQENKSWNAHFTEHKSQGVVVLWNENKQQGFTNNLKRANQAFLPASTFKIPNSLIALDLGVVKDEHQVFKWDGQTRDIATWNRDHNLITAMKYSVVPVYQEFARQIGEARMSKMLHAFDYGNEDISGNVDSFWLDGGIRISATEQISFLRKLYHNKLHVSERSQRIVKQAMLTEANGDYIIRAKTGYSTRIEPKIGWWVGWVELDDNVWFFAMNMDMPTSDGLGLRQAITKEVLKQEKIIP
# KPC-2, sequence (Q9F663 25-293 limits assumed): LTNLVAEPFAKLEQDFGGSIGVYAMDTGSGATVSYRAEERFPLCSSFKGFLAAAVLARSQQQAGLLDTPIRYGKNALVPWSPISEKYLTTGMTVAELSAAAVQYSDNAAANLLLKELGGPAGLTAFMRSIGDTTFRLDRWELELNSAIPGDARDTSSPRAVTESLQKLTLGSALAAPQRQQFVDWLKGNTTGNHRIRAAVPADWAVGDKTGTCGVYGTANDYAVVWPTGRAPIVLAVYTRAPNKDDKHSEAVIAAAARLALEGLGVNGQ
# CTX-M-14, sequence (Q9L5C7 29-291, species assumed): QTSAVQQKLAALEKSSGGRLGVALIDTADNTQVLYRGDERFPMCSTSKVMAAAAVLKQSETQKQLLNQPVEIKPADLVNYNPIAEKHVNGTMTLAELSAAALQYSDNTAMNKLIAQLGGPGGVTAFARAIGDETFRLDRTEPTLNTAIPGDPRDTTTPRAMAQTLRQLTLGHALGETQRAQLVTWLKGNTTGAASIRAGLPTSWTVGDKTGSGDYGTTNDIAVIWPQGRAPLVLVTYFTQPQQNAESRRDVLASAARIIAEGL
# IMP-1, sequence (P52699 19-246, looked up, species assumed): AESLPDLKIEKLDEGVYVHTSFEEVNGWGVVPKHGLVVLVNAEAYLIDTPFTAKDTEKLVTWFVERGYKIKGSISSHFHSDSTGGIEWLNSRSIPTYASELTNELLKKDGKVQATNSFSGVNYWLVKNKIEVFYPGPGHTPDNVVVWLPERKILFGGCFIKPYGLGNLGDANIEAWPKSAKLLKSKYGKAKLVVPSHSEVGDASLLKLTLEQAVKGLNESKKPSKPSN
# P99, sequence (P05364 21-381): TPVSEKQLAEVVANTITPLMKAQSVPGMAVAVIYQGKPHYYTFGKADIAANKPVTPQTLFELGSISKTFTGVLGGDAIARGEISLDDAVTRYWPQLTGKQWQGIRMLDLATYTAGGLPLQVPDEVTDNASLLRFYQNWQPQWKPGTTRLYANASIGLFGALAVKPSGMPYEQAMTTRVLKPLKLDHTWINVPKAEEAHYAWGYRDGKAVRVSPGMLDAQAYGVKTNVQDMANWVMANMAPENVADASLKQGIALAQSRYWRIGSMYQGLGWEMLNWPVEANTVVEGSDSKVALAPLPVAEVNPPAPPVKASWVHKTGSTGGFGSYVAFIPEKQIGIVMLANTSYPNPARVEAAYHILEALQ
# SHV-12, sequence (P0AD64 22-286 L31Q/G234S/E235K): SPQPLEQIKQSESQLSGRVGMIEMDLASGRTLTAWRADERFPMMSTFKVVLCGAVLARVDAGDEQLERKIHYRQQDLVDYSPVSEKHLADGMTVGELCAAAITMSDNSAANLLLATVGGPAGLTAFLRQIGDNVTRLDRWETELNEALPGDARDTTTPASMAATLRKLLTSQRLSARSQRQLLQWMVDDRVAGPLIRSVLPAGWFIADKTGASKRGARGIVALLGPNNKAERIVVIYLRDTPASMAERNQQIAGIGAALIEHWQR
smiles,measurement,setting,value
C[C@H]1[C@H](NC(=O)/C(=N\OC(C)(C)C(=O)O)c2csc(N)n2)C(=O)N1S(=O)(=O)O [Aztreonam],MIC,KP1005 (CTX-M-14) [1],> 128 µg/mL
same,MIC,KP1010 (SHV-12) [2],64 µg/mL
same,MIC,ec308 (SHV-5) [3],> 128 µg/mL
same,MIC,EC1010 (CMY-6) [4],> 128 µg/mL
same,MIC,ec302 (TEM-10) [5],128 µg/mL
same,MIC,KP1009 (CTX-M-15) [6],> 128 µg/mL
same,MIC,ECL1002 [7],64 µg/mL
same,MIC,KP1004 (KPC-2) [8],> 128 µg/mL
C[C@@H](O)[C@H]1C(=O)N2C(C(=O)O)=C(S[C@@H]3CN[C@H](C(=O)N(C)C)C3)[C@H](C)[C@H]12 [Meropenem],MIC,AB1054 (OXA-23),32 µg/mL
same,MIC,AB1053 (OXA-72),> 64 µg/mL
C[C@@H](O)[C@H]1C(=O)N2C(C(=O)[O-])=C(SC3Cn4cnc[n+]4C3)[C@H](C)[C@H]12 (stereo partly drawn) [Biapenem],MIC,KP1054 (VIM-1),16 µg/mL
same,MIC,KP1004 (KPC-2) [9],32 µg/mL
same,MIC,"[10]; Pseudomonas aeruginosa, PAM1154/KPC-2, biapenem alone",32 µg/mL
same,MIC,KP1081 (NDM-1),16 µg/mL
same,MIC,"[11]; Pseudomonas aeruginosa, PAM1032/KPC-2, biapenem alone",32 µg/mL
same,MIC,KP1086 (OXA-48),16 µg/mL
"O=C(O)c1c(F)ccc2c1OB(O)[C@@H]1C[C@H]21 [Compound 13, (1aR,7bS)-5-fluoro-2-hydroxy-1a,7b-dihydro-1H-cyclopropa[c][1,2]benzoxaborinine-4-carboxylic acid]",Ki,IMP-1,100 to 1000 nM
same,Ki,CTX-M-14,< 100 nM
same,PAM1154/KPC-2 Biapenem MPC64,[10],2.5
same,Ki,VIM-1,< 100 nM
same,Ki,OXA-23,< 100 nM
same,Ki,P99,< 100 nM
same,Ki,Pa-AmpC,< 100 nM
same,Ki,OXA-48,< 100 nM
same,PAM1032/KPC-2 Biapenem MPC64,[11],2.5
same,Ki,SHV-12,< 100 nM
same,Ki,KPC-2,< 100 nM
"O=C(O)c1c(F)ccc2c1OB(O)[C@H]1C[C@@H]21 [Compound 12, (1aS,7bR)-5-fluoro-2-hydroxy-1a,7b-dihydro-1H-cyclopropa[c][1,2]benzoxaborinine-4-carboxylic acid]",Ki,IMP-1,> 1000 nM
same,Ki,CTX-M-14,< 100 nM
same,PAM1154/KPC-2 Biapenem MPC64,[10],1.25
same,Ki,VIM-1,> 1000 nM
same,Ki,OXA-23,< 100 nM
same,Ki,P99,< 100 nM
same,Ki,Pa-AmpC,100 to 1000 nM
same,Ki,OXA-48,< 100 nM
same,PAM1032/KPC-2 Biapenem MPC64,[11],2.5
same,Ki,SHV-12,< 100 nM
same,Ki,KPC-2,< 100 nM
CC1(C)[C@H](NC(=O)/C(=N\OCC(=O)O)c2csc(N)n2)C(=O)N1OS(=O)(=O)O [Tigemonam],Tigemonam MIC,KP1005 (CTX-M-14) [12],>64 µg/mL
same,Tigemonam MIC,ec302 (TEM-10) [13],>64 µg/mL
same,Tigemonam MIC,KP1010 (SHV-12) [14],>64 µg/mL
same,Tigemonam MIC,EC1010 (CMY-6) [15],16 µg/mL
same,Tigemonam MIC,ECL1002 [16],32 µg/mL
same,Tigemonam MIC,KP1009 (CTX-M-15) [17],>64 µg/mL
same,Tigemonam MIC,ec308 (SHV-5) [18],>64 µg/mL
